Source: paper doi:10.1101/2021.10.07.463234v2 (biorxiv, 2021)
Structures can show the parent of a compound that is named as a salt.

Target: SARS-CoV-2 Mac1 (Severe acute respiratory syndrome coronavirus 2, UniProt P0DTD1)
Assay: biochemical
Conditions: for inhibition at 100 µM: read-out: %inhibition; for %inhibition: 100 µM, inhibitor

| Structure (SMILES) | inhibition at 100 µM | %inhibition |
| --- | --- | --- |
| S=C(NCc1ccc2c(c1)OCO2)N1CCN(c2ncnc3c2oc2ccccc23)CC1 [Amuvatinib (MP-470)] | 24.8% | – |
| C1=N/C2=N/c3ccc(OCCN4CCCC4)c(c3)COC/C=C/COCc3cccc(c3)C(=C1)N2 [Pacritinib (SB1518)] | 0% | – |
| CC(=O)O[C@]1(C(C)=O)CC[C@H]2[C@@H]3C[C@H](C)C4=CC(=O)CC[C@]4(C)[C@H]3CC[C@@]21C [Medroxyprogesterone acetate] | 26.1% | – |
| C=C1C[C@@H]2[C@H](CC[C@]3(C)C(=O)CC[C@@H]23)[C@@]2(C)C=CC(=O)C=C12 [Exemestane] | 11.1% | – |
| CCCN[C@H]1CCc2nc(N)sc2C1 [Pramipexole dihydrochloride] | – | 10.17% |
| COc1ccc(CN2CCN(C(c3ccc(F)cc3)c3ccc(F)cc3)CC2)c(OC)c1OC [Lomerizine 2HCl] | 12.8% | – |
| COC(=O)[C@]12CCC(C)(C)C[C@H]1[C@H]1C(=O)C=C3[C@@]4(C)C=C(C#N)C(=O)C(C)(C)[C@@H]4CC[C@@]3(C)[C@]1(C)CC2 [Bardoxolone Methyl] | 16.4% | – |
| Nc1nc(Cl)nc2c1ncn2[C@H]1C[C@H](O)[C@@H](CO)O1 [Cladribine] | 1.17% | – |
| CCC[C@H](N[C@@H](C)C(=O)N1[C@H](C(=O)O)C[C@@H]2CCCC[C@@H]21)C(=O)OCC [Perindopril Erbumine] | 5.79% | – |
| CN[C@H]1C[C@@H](N)[C@H](O)[C@@H](O[C@@H]2O[C@H](CO)[C@H](O)[C@@H]3OC4(O[C@H]23)O[C@H]([C@@H](N)CO)[C@H](O)[C@H](O)[C@H]4O)[C@@H]1O (stereo partly shown) [Hygromycin B] | 0% | – |
| OC1(c2ccc(Cl)c(C(F)(F)F)c2)CCN(CCCC(c2ccc(F)cc2)c2ccc(F)cc2)CC1 [Penfluridol] | 5.86% | – |
| CCOCCn1c(C2CCN(CCc3ccc(C(C)(C)C(=O)O)cc3)CC2)nc2ccccc21 [Bilastine] | 0% | – |
| Cc1cc(C)nc(NS(=O)(=O)c2ccc(N)cc2)n1 [Sulfamethazine] | – | 0% |
| Cc1cccc(C)c1NC(=O)C1CCCCN1C (stereo not shown) [Mepivacaine] | – | 0% |
| C[C@]12CCC(=O)C=C1CC[C@@H]1[C@@H]2[C@@H](O)C[C@@]2(C)[C@H]1CC[C@]2(O)C(=O)CO [Hydrocortisone] | 5.07% | – |
| Nc1cccc2c1CN(C1CCC(=O)NC1=O)C2=O (stereo not shown) [Lenalidomide (CC-5013)] | 40.3% | – |
| Cc1cc(C2CCCCC2)n(O)c(=O)c1 [Ciclopirox ethanolamine] | – | 12.57% |
| CC(=O)OC(C)C[N+](C)(C)C (stereo not shown) [Methacholine chloride] | 8.52% | – |
| CC1(C)O[C@@H]2C[C@H]3[C@@H]4CCC5=CC(=O)C=C[C@]5(C)[C@@]4(F)[C@@H](O)C[C@]3(C)[C@]2(C(=O)CO)O1 [Triamcinolone Acetonide] | 0% | – |
| CC[C@H]1OC(=O)[C@H](C)[C@@H](O[C@H]2C[C@@](C)(OC)[C@@H](O)[C@H](C)O2)[C@H](C)[C@@H](O[C@@H]2O[C@H](C)C[C@H](N(C)C)[C@H]2O)[C@](C)(OC)C[C@@H](C)C(=O)[C@H](C)[C@@H](O)[C@]1(C)O [Clarithromycin] | 24.2% | – |
| CC(=O)OCC[N+](C)(C)C [Acetylcholine iodide] | 0% | – |
| CC(C)C[C@H](NC(=O)CNC(=O)c1cc(Cl)ccc1Cl)B(O)O [Ixazomib (MLN2238)] | 5.63% | – |
| CCCc1nn(C)c2c(=O)[nH]c(-c3cc(S(=O)(=O)N4CCN(C)CC4)ccc3OCC)nc12 [Sildenafil Citrate] | 0% | – |
| OCCN1C[C@H](O)[C@@H](O)[C@H](O)[C@H]1CO [Miglitol] | 11% | – |
| CO/N=C(\C(=O)N[C@@H]1C(=O)N2C(C(=O)[O-])=C(C[n+]3cccc4c3CCC4)CS[C@H]12)c1csc(N)n1 [Cefpirome sulfate] | 0% | – |
| CC(C)Cn1cnc2c(N)nc3ccccc3c21 [Imiquimod] | 26.3% | – |

| Structure (SMILES) | inhibition at 100 µM | %inhibition |
| --- | --- | --- |
| CC(=O)Oc1cc(C(F)(F)F)ccc1C(=O)O [Triflusal] | 5.82% | – |
| CCCCC(C)(O)C/C=C/[C@H]1[C@H](O)CC(=O)[C@@H]1CCCCCCC(=O)OC (mixture of isomers) [Misoprostol] | 0% | – |
| O=S(=O)(c1cccc2cnccc12)N1CCCNCC1 [Fasudil (HA-1077) HCl] | 0% | – |
| COc1cc2c(Oc3ccc(NC(=O)C4(C(=O)Nc5ccc(F)cc5)CC4)cc3F)ccnc2cc1OCCCN1CCOCC1 [Foretinib (GSK1363089)] | 0% | – |
| O[C@@H]1CO[C@H]2[C@@H]1OC[C@@H]2O [Isosorbide] | 17.9% | – |
| Clc1ccc2nsnc2c1NC1=NCCN1 [Tizanidine HCl] | 0% | – |
| C[C@@H]1CC(=O)NN=C1c1ccc(NN=C(C#N)C#N)cc1 [Levosimendan] | 0% | – |
| CN(C)CCCOc1nn(Cc2ccccc2)c2ccccc12 [Benzydamine HCl] | 4.5% | – |
| CC(=O)O[C@@]12CO[C@@H]1C[C@H](O)[C@@]1(C)C(=O)[C@H](O)C3=C(C)[C@@H](OC(=O)[C@H](O)[C@@H](NC(=O)OC(C)(C)C)c4ccccc4)C[C@@](O)([C@@H](OC(=O)c4ccccc4)[C@H]21)C3(C)C [Docetaxel Trihydrate] | – | 6.628% |
| O=C(O)CCc1nc2ccccc2[nH]1 [Procodazole] | 7.67% | – |
| Cc1cnc(Nc2ccc(OCCN3CCCC3)cc2)nc1Nc1cccc(S(=O)(=O)NC(C)(C)C)c1 [Fedratinib (SAR302503, TG101348)] | 17.5% | – |
| Cc1cc2c(cc1S(N)(=O)=O)S(=O)(=O)CCC2 [Meticrane] | 0% | – |
| CN(C)CC(c1ccc(O)cc1)C1(O)CCCCC1 (stereo not shown) [Desvenlafaxine] | – | 6.836% |
| NCCCC(N)(C(=O)O)C(F)F (stereo not shown) [Eflornithine hydrochloride hydrate] | 0% | – |
| C[C@]12CC[C@@H]3c4ccc(OC(=O)c5ccccc5)cc4CC[C@H]3[C@@H]1CC[C@@H]2O [Estradiol Benzoate] | 20.5% | – |
| O=C1/C(=C2\Nc3ccc(S(=O)(=O)O)cc3C2=O)Nc2ccc(S(=O)(=O)O)cc21 [Indigo carmine] | 39.3% | – |
| OCc1ccccc1 [Benzyl alcohol] | 0% | – |
| N[C@H]1CONC1=O [L-Cycloserine] | 1.65% | – |
| C#C[C@]1(OC(C)=O)CC[C@H]2[C@@H]3CCC4=C[C@@H](OC(C)=O)CC[C@@H]4[C@H]3CC[C@@]21C [Ethynodiol diacetate] | 0% | – |
| COc1cc2/c(=N/c3ccc(Br)cc3F)nc[nH]c2cc1OCC1CCN(C)CC1 [Vandetanib (ZD6474)] | 35.2% | – |
| O=C(O)C[C@H](O)C[C@H](O)/C=C/c1c(C2CC2)nc2ccccc2c1-c1ccc(F)cc1 [Pitavastatin Calcium] | 13.3% | – |
| CC(=O)Oc1cc2c(s1)CCN(C(C(=O)C1CC1)c1ccccc1F)C2 (stereo not shown) [Prasugrel] | – | 25.16% |
| CCOC(=O)C1=C[C@@H](OC(CC)CC)[C@H](NC(C)=O)[C@@H](N)C1 [Oseltamivir Phosphate] | – | 4.261% |
| CCOc1ccc(NC(C)=O)cc1 [Phenacetin] | 11.4% | – |
| CC[C@@H]1C(=O)OC[C@@H]1Cc1cncn1C [Pilocarpine HCl] | 0% | – |
| Cc1cnc(C(=O)N[C@H]2CCCCC/C=C\[C@@H]3C[C@@]3(C(=O)NS(=O)(=O)C3CC3)NC(=O)[C@@H]3C[C@@H](Oc4nc5ccccc5c5ccccc45)CN3C2=O)cn1 [Paritaprevir (ABT-450)] | 0% | – |
